For data set [1], the system named is MCF-7 (breast cancer cell line). As to the kind of experiment: MTT cytotoxicity assay, MCF-7. The format is cell-based. The note with it: Homo sapiens, MCF7; MCF-7, MTT, 72 h. An excerpt: (§1) Colorectal carcinoma cells (HCT-116), chronic myelogenous leukemia (K562), and acute promyelocytic leukemia (HL-60) were generously provided by Dr. Manoel de Moraes (Federal University of Ceará, Fortaleza, Brazil) and cultured in Roswell Park Memorial Institute 1640 (RPMI 1640; Sigma Aldrich, St. Louis, MO, USA) medium supplemented with 10% fetal bovine serum (GIBCO, Grand Island, NY, USA) and 1% penicillin–streptomycin (Sigma Aldrich, St. Louis, MO, USA). […]
(§2) MTT (3-(4,5-dimethylthiazol-2-yl)-2,5-diphenyltetrazolium bromide) reduction assay was used to evaluate the cytotoxicity of ACS03 and its precursors (2-amino-5,6,7,8-tetrahydro-4H-cyclohepta[b]thiophene-3-carbonitrile and 6,9-dichloro-2-methoxyacridine) against tumor and non-tumor cell lines and PBMC. […] The optical density was measured using a microplate spectrophotometer reader (Microplate reader BioTek Instruments, Sinergy HT, Winooski, VT, USA) at λ = 570 nm and used to calculate the IC50 (half maximal inhibitory concentration).
A general note: Tetrazolium assays rely on reduction of a dye to a coloured formazan, in cell work by metabolically active cells.

Data set [2] deals with K562 (chronic myeloid leukemic cell line). The experiment in a line: MTT cytotoxicity assay, K562. The note with it: Homo sapiens, 72 h. The format is cell-based.
Description: as §1, §2

The test system of data set [3] is peripheral blood mononuclear cells (PBMC). The experiment in a line: MTT cytotoxicity assay, PBMC. Type of data set: cell-based. The conditions noted are these: Homo sapiens, 72 h. Here is the method: Heparinized blood was collected from healthy donors, and the PBMC were isolated by a standard method of density-gradient centrifugation using Ficoll-Histopaque (Sigma Aldrich, St. Louis, MO, USA). PBMC were cultivated in RPMI-1640 medium supplemented with 10% fetal bovine serum, 1% penicillin–streptomycin, and 2% phytohaemagglutinin. Cells were kept at 37 °C with 5% CO2 for 24 h before the start of the experiment. This study was approved by the Ethics Committee of the Human Health Sciences Center Research (CCS), UFPB (CAAE: 22986519.0.0000.5188), Brazil.
as §2, with “PBMC. For the MTT assay, cell lines (3 × 10^5 cells/mL) and PBMC (1 × 10^6 cells/mL) were seeded on 96-well plates and cultured for 24 h. ACS03 (3.125–200 µM) was added to the cell cultures and incubated for 72 h.” for “PBMC.”

Data set [4] concerns LDH (Lactate dehydrogenase). The experiment in a line: LDH activity in zebrafish larvae. The format is in vivo. The conditions noted are these: 96 h, control 316.6 ± 1.28. As to the method: (§3) The FET test was repeated for ACS03 under the same conditions described above, but this time the embryos were independently exposed to three concentrations (10, 20, and 40 µM). At the end of the exposure period (96 h), the larvae were quickly frozen in a ratio of 1 larva per 100 µL of 0.1 M sodium phosphate buffer, pH 7.4.
(§4) Larval groups from each of the three tested concentrations and a negative control group (exposed to E3 medium only) were macerated using 1:9 (w/v) cold 0.9% NaCl solution. The homogenates were centrifuged at 10,000× g for 10 min at 4 °C, and the resulting supernatants were used for the measurement of soluble protein content and enzyme activity. The activities of acetylcholinesterase (AChE), glutathione S-transferase (GST), and lactate dehydrogenase (LDH) were measured according to Domingues et al. (2010). Tests were done in quadruplicate for each enzyme.

Data set [5] has as its system GST (Glutathione S-transferase). The experiment in a line: GST activity in zebrafish larvae. The note with it: 96 h, control 31.8 ± 0.05. Type of data set: in vivo, zebrafish (Danio rerio). As to the method:
as §3, §4

Data set [6] deals with AChE (Acetylcholinesterase). As to the kind of experiment: AChE activity in zebrafish larvae. The format is in vivo, zebrafish (Danio rerio). The note with it: 96 h, control 66.35 ± 0.04. Here is the method: as §3, §4
For data set [7], the system named is Ehrlich ascites carcinoma. The experiment in a line: In vivo antitumor activity, Ehrlich ascites carcinoma model. On the set-up: species or system mice (Mus musculus). The note with it: 12.5 mg/kg i.p., seven days. An excerpt: Ehrlich ascites carcinoma was generously provided by Pharmacology and Toxicology Division, CPQBA, UNICAMP (Paulínia, São Paulo, Brazil). The cells were maintained in the peritoneal cavities of Swiss mice in the Dr. Thomas George Bioterium (Research Institute in Drugs and Medicines/Federal University of Paraíba, João Pessoa, Brazil).
Female Swiss albino mice (Mus musculus) weighing between 28 and 32 g, with an approximate age of 60 days and obtained from the Dr. Thomas George Bioterium (Research Institute in Drugs and Medicines/Federal University of Paraíba, Paraíba, Brazil) were used. The animals were grouped in polyethylene cages containing six animals, with free access to food (Purina® feed pellets, St. Louis, MO, USA) and water. The animals were kept under controlled conditions (21 ± 1 °C, 12 h/12 h off light/dark cycle). All experiments were approved by the Committee on Ethical Use of Animals in Research (CEUA) of Federal University of Paraíba, Brazil, certified by number 093/2017.
Mice were inoculated with 4 × 10^6 cells/mL of Ehrlich tumor cells (0.5 mL/animal), intraperitoneally (i.p.). After 24 h, mice were divided into […] (n = 6/group) and treated with vehicle alone (12% (v/v) Tween 80 in saline), 5-FU (standard drug, 25 mg/kg), or ACS03 (3.125, 6.25, 12.5, or 25 mg/kg) for seven consecutive days (i.p.). […]

In data set [8] the test system is Leishmania. On the set-up: method as in PMID 29415325. The note with it: cited from earlier work.

The IC50 is the concentration that inhibits the measured activity by half. A low value points to inhibition by little substance. For `COc1ccc2nc3cc(Cl)ccc3c(Nc3sc4c(c3C#N)CCCCC4)c2c1` [ACS03, 2-((6-Chloro-2-methoxyacridin-9-yl)amino)-5,6,7,8-tetrahydro-4H-cyclohepta[b]-thiophene-3-carbonitrile], the results for the IC50 in data set [1], in data set [2] and in data set [3] were above 50 µM, above 50 µM and 115 ± 5.82 µM, respectively. In addition, the values for the LDH activity in data set [4] (20 µM) and in data set [4] (40 µM) were 378.44 ± 0.58 and 426.74 ± 0.79, respectively. In addition, the GST activity was 57.96 ± 0.23 in data set [5] (10 µM), 75.83 ± 0.13 in data set [5] (20 µM) and 86.14 ± 0.21 in data set [5] (40 µM). Moreover, the AChE activity in data set [6] (10 µM) was found to be 85.67 ± 0.11; in data set [6] (20 µM) it was 94.59 ± 0.20; in data set [6] (40 µM), 94.54 ± 0.10. In addition, in data set [7] (trypan blue, control 115.5 ± 23.97), the cell viability is on record as 4.12 ± 1.28 × 10^6 cells/mL. The tumor volume in data set [7] (control 6.93 ± 0.79 mL) stood at 0.0 mL. In addition, the antileishmanial activity result in data set [8] is on record as “showed antileishmanial activity”.

Values taken from paper PMC6983054, “Toxicity and Antitumor Activity of a Thiophene–Acridine Hybrid” (Molecules, 2019).
